According to the NIST ThermoML archive (doi:10.1021/acs.jced.8b00591):

Test: xn = mol fraction of the nth substance listed
Conditions: 101.3 kPa, Liquid; for viscosity: Falling or rolling sphere viscometry; for mass density: Vibrating tube method

CCCC[n+]1ccn(C)c1.O=S(=O)([N-]S(=O)(=O)C(F)(F)F)C(F)(F)F + CCOC(=O)OCC
Conditions	mass density [kg/m3]	viscosity [mPa·s]
288.15 K, x1 = 0.1025	1086.84	2.12
288.15 K, x1 = 0.2198	1177.9	4.415
288.15 K, x1 = 0.3178	1236.57	7.583
288.15 K, x1 = 0.4211	1285.86	13.26
288.15 K, x1 = 0.5268	1327.09	20.12
288.15 K, x1 = 0.622	1358.33	28.36
288.15 K, x1 = 0.7193	1385.68	38.93
288.15 K, x1 = 0.8139	1408.25	50.88
288.15 K, x1 = 0.9088	1428.49	64.94
288.15 K, x1 = 1	1445.66	78.02
293.15 K, x1 = 0.1025	1081.45	1.928
293.15 K, x1 = 0.2198	1172.7	3.925
293.15 K, x1 = 0.3178	1231.47	6.526
293.15 K, x1 = 0.4211	1280.83	11.18
293.15 K, x1 = 0.5268	1322.13	17.25
293.15 K, x1 = 0.622	1353.42	23.42
293.15 K, x1 = 0.7193	1380.79	31.68
293.15 K, x1 = 0.8139	1403.38	40.79
293.15 K, x1 = 0.9088	1423.65	51.44
293.15 K, x1 = 1	1440.84	61.32
298.15 K, x1 = 0.1025	1076.05	1.764
298.15 K, x1 = 0.2198	1167.48	3.517
298.15 K, x1 = 0.3178	1226.35	5.739
298.15 K, x1 = 0.4211	1275.8	9.492
298.15 K, x1 = 0.5268	1317.16	14.77
298.15 K, x1 = 0.622	1348.49	19.58
298.15 K, x1 = 0.7193	1375.9	26.16
298.15 K, x1 = 0.8139	1398.52	33.25
298.15 K, x1 = 0.9088	1418.81	41.43
298.15 K, x1 = 1	1436.01	48.93
303.15 K, x1 = 0.1025	1070.65	1.618
303.15 K, x1 = 0.2198	1162.26	3.168
303.15 K, x1 = 0.3178	1221.23	5.085
303.15 K, x1 = 0.4211	1270.77	8.179
303.15 K, x1 = 0.5268	1312.2	12.6
303.15 K, x1 = 0.622	1343.58	17.03
303.15 K, x1 = 0.7193	1371.04	21.88
303.15 K, x1 = 0.8139	1393.68	27.57
303.15 K, x1 = 0.9088	1413.97	34.06
303.15 K, x1 = 1	1431.21	39.84
308.15 K, x1 = 0.1025	1065.23	1.492
308.15 K, x1 = 0.2198	1157.03	2.873
308.15 K, x1 = 0.3178	1216.12	4.539
308.15 K, x1 = 0.4211	1265.74	7.219
308.15 K, x1 = 0.5268	1307.25	10.76
308.15 K, x1 = 0.622	1338.67	14.69
308.15 K, x1 = 0.7193	1366.17	18.7
308.15 K, x1 = 0.8139	1388.84	23.2
308.15 K, x1 = 0.9088	1409.18	28.32
308.15 K, x1 = 1	1426.43	32.91
313.15 K, x1 = 0.1025	1059.8	1.385
313.15 K, x1 = 0.2198	1151.8	2.614
313.15 K, x1 = 0.3178	1210.99	3.977
313.15 K, x1 = 0.4211	1260.71	6.414
313.15 K, x1 = 0.5268	1302.3	9.287
313.15 K, x1 = 0.622	1333.78	12.63
313.15 K, x1 = 0.7193	1361.32	16.35
313.15 K, x1 = 0.8139	1384.01	19.64
313.15 K, x1 = 0.9088	1404.39	23.69
313.15 K, x1 = 1	1421.66	27.56
318.15 K, x1 = 0.1025	1054.35	1.286
318.15 K, x1 = 0.2198	1146.57	2.391
318.15 K, x1 = 0.3178	1205.88	3.591
318.15 K, x1 = 0.4211	1255.69	5.815
318.15 K, x1 = 0.5268	1297.36	8.069
318.15 K, x1 = 0.622	1328.9	10.92
318.15 K, x1 = 0.7193	1356.48	14.18
318.15 K, x1 = 0.8139	1379.19	16.89
318.15 K, x1 = 0.9088	1399.6	20.05
318.15 K, x1 = 1	1416.91	23.33
323.15 K, x1 = 0.1025	1048.88	1.198
323.15 K, x1 = 0.2198	1141.33	2.194
323.15 K, x1 = 0.3178	1200.77	3.259
323.15 K, x1 = 0.4211	1250.68	5.216
323.15 K, x1 = 0.5268	1292.44	7.105
323.15 K, x1 = 0.622	1324.02	9.492
323.15 K, x1 = 0.7193	1351.66	12.28
323.15 K, x1 = 0.8139	1374.39	14.6
323.15 K, x1 = 0.9088	1394.85	17.26
323.15 K, x1 = 1	1412.17	19.97
328.15 K, x1 = 0.1025	1043.4	1.117
328.15 K, x1 = 0.2198	1136.07	2.025
328.15 K, x1 = 0.3178	1195.65	2.978
328.15 K, x1 = 0.4211	1245.68	4.71
328.15 K, x1 = 0.5268	1287.5	6.138
328.15 K, x1 = 0.622	1319.16	8.288
328.15 K, x1 = 0.7193	1346.84	10.66
328.15 K, x1 = 0.8139	1369.58	12.69
328.15 K, x1 = 0.9088	1390.1	15
328.15 K, x1 = 1	1407.45	17.41

CCn1cc[n+](C)c1.O=S(=O)([N-]S(=O)(=O)C(F)(F)F)C(F)(F)F + CCOC(=O)OCC
Conditions	mass density [kg/m3]	viscosity [mPa·s]
288.15 K, x1 = 0.0991	1090.45	1.938
288.15 K, x1 = 0.1982	1179.3	3.368
288.15 K, x1 = 0.3024	1254.64	5.628
288.15 K, x1 = 0.3979	1312.21	8.533
288.15 K, x1 = 0.4982	1362.22	12.38
288.15 K, x1 = 0.5963	1404.91	17.23
288.15 K, x1 = 0.6992	1442.62	24.14
288.15 K, x1 = 0.7987	1475.05	31.13
288.15 K, x1 = 0.9	1503.75	39.07
288.15 K, x1 = 1	1528.55	49.41
293.15 K, x1 = 0.0991	1085.01	1.769
293.15 K, x1 = 0.1982	1173.95	3.032
293.15 K, x1 = 0.3024	1249.39	4.987
293.15 K, x1 = 0.3979	1306.99	7.45
293.15 K, x1 = 0.4982	1357.04	10.66
293.15 K, x1 = 0.5963	1399.78	14.65
293.15 K, x1 = 0.6992	1437.5	20.32
293.15 K, x1 = 0.7987	1469.95	25.96
293.15 K, x1 = 0.9	1498.66	32.29
293.15 K, x1 = 1	1523.47	40.36
298.15 K, x1 = 0.0991	1079.54	1.623
298.15 K, x1 = 0.1982	1168.6	2.746
298.15 K, x1 = 0.3024	1244.11	4.452
298.15 K, x1 = 0.3979	1301.78	6.552
298.15 K, x1 = 0.4982	1351.87	9.269
298.15 K, x1 = 0.5963	1394.64	12.59
298.15 K, x1 = 0.6992	1432.38	17.65
298.15 K, x1 = 0.7987	1464.86	21.91
298.15 K, x1 = 0.9	1493.58	27.04
298.15 K, x1 = 1	1518.39	33.52
303.15 K, x1 = 0.0991	1074.07	1.495
303.15 K, x1 = 0.1982	1163.23	2.498
303.15 K, x1 = 0.3024	1238.83	3.992
303.15 K, x1 = 0.3979	1296.56	5.819
303.15 K, x1 = 0.4982	1346.7	8.127
303.15 K, x1 = 0.5963	1389.51	10.93
303.15 K, x1 = 0.6992	1427.28	15.41
303.15 K, x1 = 0.7987	1459.77	18.79
303.15 K, x1 = 0.9	1488.51	22.93
303.15 K, x1 = 1	1513.34	28.35
308.15 K, x1 = 0.0991	1068.56	1.389
308.15 K, x1 = 0.1982	1157.86	2.288
308.15 K, x1 = 0.3024	1233.56	3.607
308.15 K, x1 = 0.3979	1291.36	5.196
308.15 K, x1 = 0.4982	1341.55	7.192
308.15 K, x1 = 0.5963	1384.4	9.572
308.15 K, x1 = 0.6992	1422.19	13.37
308.15 K, x1 = 0.7987	1454.71	16.59
308.15 K, x1 = 0.9	1483.46	19.65
308.15 K, x1 = 1	1508.3	24.15
313.15 K, x1 = 0.0991	1063.05	1.29
313.15 K, x1 = 0.1982	1152.48	2.102
313.15 K, x1 = 0.3024	1228.28	3.278
313.15 K, x1 = 0.3979	1286.15	4.672
313.15 K, x1 = 0.4982	1336.41	6.41
313.15 K, x1 = 0.5963	1379.3	8.445
313.15 K, x1 = 0.6992	1417.12	11.6
313.15 K, x1 = 0.7987	1449.66	14.56
313.15 K, x1 = 0.9	1478.42	17.36
313.15 K, x1 = 1	1503.28	20.76
318.15 K, x1 = 0.0991	1057.53	1.204
318.15 K, x1 = 0.1982	1147.11	1.939
318.15 K, x1 = 0.3024	1223.01	2.993
318.15 K, x1 = 0.3979	1280.95	4.223
318.15 K, x1 = 0.4982	1331.27	5.749
318.15 K, x1 = 0.5963	1374.2	7.525
318.15 K, x1 = 0.6992	1412.06	10.14
318.15 K, x1 = 0.7987	1444.62	12.72
318.15 K, x1 = 0.9	1473.41	15.35
318.15 K, x1 = 1	1498.27	17.9
323.15 K, x1 = 0.0991	1051.98	1.121
323.15 K, x1 = 0.1982	1141.72	1.794
323.15 K, x1 = 0.3024	1217.74	2.746
323.15 K, x1 = 0.3979	1275.76	3.839
323.15 K, x1 = 0.4982	1326.13	5.184
323.15 K, x1 = 0.5963	1369.11	6.739
323.15 K, x1 = 0.6992	1407.01	8.895
323.15 K, x1 = 0.7987	1439.6	11.15
323.15 K, x1 = 0.9	1468.41	13.53
323.15 K, x1 = 1	1493.28	15.93
328.15 K, x1 = 0.0991	1046.42	1.049
328.15 K, x1 = 0.1982	1136.32	1.667
328.15 K, x1 = 0.3024	1212.46	2.528
328.15 K, x1 = 0.3979	1270.58	3.509
328.15 K, x1 = 0.4982	1321.01	4.704
328.15 K, x1 = 0.5963	1364.03	6.075
328.15 K, x1 = 0.6992	1401.98	7.875
328.15 K, x1 = 0.7987	1434.59	9.813
328.15 K, x1 = 0.9	1463.42	11.93
328.15 K, x1 = 1	1488.31	14.26
